Test results from US20240294533A1, “2-(HET)ARYL-SUBSTITUTED CONDENSED HETEROCYCLE DERIVATIVES AS PEST CONTROL AGENTS” (Bayer Aktiengesellschaft, priority 2021, published 2024).

Legend:
Assay type in all cases: in vivo
[1] = test system: Diabrotica balteata; assay: Diabrotica balteata spray test; settings: Diabrotica balteata, 168 h; 100 g/ha (=32 μg/cavity), wheat grains, after 7 days; read-out: efficacy
Description: Diabrotica balteata—Spray Test Solvent: 78 parts by weight of acetone • • 1.5 parts by weight of dimethylformamide Emulsifier: alkylaryl polyglycol ether An appropriate active ingredient formulation is produced by dissolving 1 part by weight of active ingredient with the stated parts by weight of solvent and making the solution up to the desired concentration with water containing an emulsifier concentration of 1000 ppm. Further test concentrations are produced by diluting the formulation with emulsifier-containing water. Pre-swollen wheat grains (Triticum aestivum) are incubated in a multiwell plate filled with agar and a little water for one day (5 seed grains per cavity). The germinated wheat grains are sprayed with an active ingredient formulation of the desired concentration. Subsequently, each cavity is infected with 10-20 beetle larvae of Diabrotica balteata. After 7 days, efficacy in % is determined. 100% means that all wheat plants have grown as in the untreated, uninfected control; 0% means that no wheat plant has grown.

[2] = test system: Nezara viridula; assay: Nezara viridula spray test (infected barley plants sprayed); settings: 100 g ai/ha, after 4 days
Description: Nezara viridula—Spray Test Solvent: 52.5 parts by weight of acetone • 7 parts by weight of dimethylformamide Emulsifier: alkylaryl polyglycol ether An appropriate active ingredient formulation is produced by dissolving 1 part by weight of active ingredient with the stated parts by weight of solvent and making the solution up to the desired concentration with water containing an emulsifier concentration of 1000 ppm. Further test concentrations are produced by diluting the formulation with emulsifier-containing water. If the addition of ammonium salts or/and penetrants is required, these are each added in a concentration of 1000 ppm to the formulation solution. Barley plants (Hordeum vulgare) infected with larvae of the Southern green shield bug (Nezara viridula) are sprayed with an active ingredient formulation of the desired concentration. After 4 days, efficacy in % is determined. 100% means that all of the shield bugs have been killed; 0% means that none of the shield bugs have been killed.

[3] = test system: Spodoptera frugiperda; assay: Spodoptera frugiperda spray test (maize leaf discs); settings: Spodoptera frugiperda, foliar, 168 h, after 7 days, read-out: efficacy
Description: Spodoptera Frusiperda—Spray Test Solvent: 78.0 parts by weight of acetone • • 1.5 parts by weight of dimethylformamide Emulsifier: alkylaryl polyglycol ether An appropriate active ingredient formulation is produced by dissolving 1 part by weight of active ingredient with the stated parts by weight of solvent and making the solution up to the desired concentration with water containing an emulsifier concentration of 1000 ppm. Further test concentrations are produced by diluting the formulation with emulsifier-containing water. Leaf discs of maize (Zea mays) are sprayed with an active ingredient formulation of the desired concentration and, after drying, populated with caterpillars of the fall armyworm (Spodoptera frugiperda). After 7 days, efficacy in % is determined. 100% means that all the caterpillars have been killed; 0% means that no caterpillar has been killed.

[4] = test system: Meloidogyne incognita; assay: Meloidogyne incognita test; settings: Meloidogyne incognita, 336 h, lettuce, gall formation after 14 days, read-out: nematicidal efficacy
Description: Meloidogyne incognita Test Solvent: 125.0 parts by weight of acetone An appropriate active ingredient formulation is produced by mixing 1 part by weight of active ingredient with the stated amount of solvent and diluting the concentrate to the desired concentration with water. Vessels are filled with sand, active ingredient solution, an egg/larvae suspension of the southern root-knot nematode (Meloidogyne incognita) and lettuce seeds. The lettuce seeds germinate and the plants develop. The galls develop on the roots. After 14 days, the nematicidal efficacy in % is determined by the formation of galls. 100% means that no galls were found; 0% means that the number of galls on the treated plants corresponds to the untreated control.

[5] = test system: Myzus persicae; assay: Myzus persicae spray test; settings: 20 ppm, bell pepper plants, after 6 days
Description: Myzus persicae—Spray Test Solvent: 14 parts by weight of dimethylformamide Emulsifier: alkylaryl polyglycol ether An appropriate active ingredient formulation is produced by dissolving 1 part by weight of active ingredient with the stated parts by weight of solvent and making the solution up to the desired concentration with water containing an emulsifier concentration of 1000 ppm. Further test concentrations are produced by diluting the formulation with emulsifier-containing water. If the addition of ammonium salts or/and penetrants is required, these are each added in a concentration of 1000 ppm to the formulation solution. Bell pepper plants (Capsicum annuum) severely infested with the green peach aphid (Myzus persicae) are treated by spraying with the active ingredient formulation in the desired concentration. After 6 days, the kill rate in % is determined. 100% means that all of the aphids have been killed; 0% means that none of the aphids have been killed.

[6] = test system: Myzus persicae; assay: Myzus persicae oral test; settings: 4 ppm, after 5 days
Experimental: Myzus persicae—Oral Test Solvent: 100 parts by weight of acetone An appropriate active ingredient formulation is produced by dissolving 1 part by weight of active ingredient with the specified parts by weight of solvent and making the solution up to the desired concentration with water. 50 μl of the active ingredient formulation is transferred into microtitre plates and made up to a final volume of 200 μl with 150 μl of IPL41 insect medium (33%+15% sugar). Subsequently, the plates are sealed with parafilm, which a mixed population of green peach aphids (Myzus persicae) within a second microtitre plate is able to puncture and imbibe the solution. After 5 days, efficacy in % is determined. 100% means that all the aphids have been killed; 0% means that no aphids have been killed.

[7] = test system: Ctenocephalides felis; assay: Ctenocephalides felis oral test; settings: 100 ppm, oral via cattle blood, after 2 days
Experimental: Ctenocephalides felis—Oral Test Solvent: dimethyl sulfoxide An appropriate active ingredient formulation is produced by mixing 10 mg of active ingredient with 0.5 ml of dimethyl sulfoxide. Dilution with citrated cattle blood gives the desired concentration. About 20 unfed adult cat fleas (Ctenocephalides felis) are placed into a chamber which is closed at the top and bottom with gauze. Onto the chamber is placed a metal cylinder with its bottom end closed with parafilm. The cylinder contains the blood/active ingredient formulation, which can be imbibed by the fleas through the parafilm membrane. The cylinder is heated to 37° C., while the flea chambers are kept at room temperature. After 2 days, the kill rate in % is determined relative to the untreated control. 100% means that all of the fleas have been killed; 0% means that none of the fleas have been killed.

[8] = test system: Phaedon cochleariae; assay: Phaedon cochleariae spray test; settings: 100 g/ha, Chinese cabbage leaf discs, after 7 days
Description: Phaedon cochleariae—Spray Test
Solvent: 78.0 parts by weight of acetone • • 1.5 parts by weight of dimethylformamide
Emulsifier: alkylaryl polyglycol ether
An appropriate active ingredient formulation is produced by dissolving 1 part by weight of active ingredient with the stated parts by weight of solvent and making the solution up to the desired concentration with water containing an emulsifier concentration of 1000 ppm. Further test concentrations are produced by diluting the formulation with emulsifier-containing water.
Discs of Chinese cabbage leaves (Brassica pekinensis) are sprayed with an active ingredient formulation of the desired concentration and, after drying, populated with larvae of the mustard beetle (Phaedon cochleariae).
After 7 days, efficacy in % is determined. 100% means that all the beetle larvae have been killed; 0% means that no beetle larvae have been killed.

[9] = test system: Diabrotica balteata; assay: Diabrotica balteata drench test; settings: 20 ppm, soil drench, maize, after 8 days
Description: Diabrotica balteata—Drench Test Solvent: 7 parts by weight of dimethylformamide Emulsifier: 2 parts by weight of alkylaryl polyglycol ether An appropriate active ingredient formulation is produced by mixing 1 part by weight of active ingredient with the specified amounts of solvent and emulsifier, and diluting the concentrate to the desired concentration with water, it being necessary to take account of the volume of soil which is drenched. It should be ensured that a concentration of 40 ppm of emulsifier in the soil is not exceeded. Further test concentrations are produced by diluting with water. 5 […] (Zea mays) in each case are sown into pots filled with earth, and the next day the pots are watered with the active ingredient preparation of the desired concentration. After one day, about 25 L2 larvae of the banded cucumber beetle (Diabrotica balteata) are added. After 8 days, efficacy in % is determined. 100% means that all 5 plants have germinated and grown; 0% means that none of the plants has emerged.

[10] = test system: Musca domestica; assay: Musca domestica test; settings: 100 ppm, adult houseflies, after 2 days
Experimental: Musca domestica Test Solvent: dimethyl sulfoxide An appropriate active ingredient formulation is produced by mixing 10 mg of active ingredient with 0.5 ml of dimethyl sulfoxide and diluting the concentrate with water to the desired concentration. Vessels containing a sponge treated with sugar solution and the desired concentration of active compound formulation are populated with 10 adult houseflies (Musca domestica). After 2 days, the kill rate in % is determined relative to the untreated control. 100% means that all of the flies have been killed; 0% means that none of the flies have been killed.

[11] = test system: Lucilia cuprina; assay: Lucilia cuprina test; settings: 100 ppm, L1 larvae, after 2 days
Experimental: Lucilia cuprina Test Solvent: dimethyl sulfoxide An appropriate active ingredient formulation is produced by mixing 10 mg of active ingredient with 0.5 ml of dimethyl sulfoxide and diluting the concentrate with water to the desired concentration. About 20 L1 larvae of the Australian sheep blowfly (Lucilia cuprina) are transferred into a test vessel containing minced horsemeat and the active ingredient formulation of the desired concentration. After 2 days, the kill rate in % is determined relative to the untreated control. 100% means that all the larvae have been killed; 0% means that no larvae have been killed.

[12] = test system: Spodoptera frugiperda; assay: Spodoptera frugiperda spray test (SPODFR), comparative; settings: 168 h, cotton leaves, after 7 days; for Emax at 0.8 ppm: read-out: % Efficacy
Description: (§1) Spodoptera frugtiperda—Spray Test (SPODFR) Solvent: 14 parts by weight of dimethylformamide Emulsifier: alkylaryl polyglycol ether An appropriate active ingredient formulation is produced by dissolving 1 part by weight of active ingredient with the stated parts by weight of solvent and making the solution up to the desired concentration with water containing an emulsifier concentration of 1000 ppm. Further test concentrations are produced by diluting the formulation with emulsifier-containing water. If the addition of ammonium salts or/and penetrants is required, these are each added in a concentration of 1000 ppm to the formulation solution. Cotton leaves (Gossypium hirsutum) are sprayed with an active ingredient formulation of the desired concentration and populated with caterpillars of the armyworm (Spodoptera frugiperda). After 7 days, the kill in % is determined. 100% means that all caterpillars have been killed; 0% means that none of the caterpillars have been killed.

[13] = test system: Plutella xylostella; assay: Plutella xylostella spray test (PLUTMA), comparative; settings: 168 h, cabbage leaves, after 7 days
Description: Plutella xylostella Spray Test (PLUTMA) Solvent: 14 parts by weight of dimethylformamide Emulsifier: alkylaryl polyglycol ether An appropriate active ingredient formulation is produced by dissolving 1 part by weight of active ingredient with the stated parts by weight of solvent and making the solution up to the desired concentration with water containing an emulsifier concentration of 1000 ppm. Further test concentrations are produced by diluting the formulation with emulsifier-containing water. If the addition of ammonium salts or/and penetrants is required, these are each added in a concentration of 1000 ppm to the formulation solution. Cabbage leaves (Brassica oleracea) are sprayed with an active ingredient formulation of the desired concentration and infected with larvae of the diamondback moth (Plutella xylostella). After 7 days, the kill in % is determined. 100% means that all caterpillars have been killed; 0% means that none of the caterpillars have been killed.

[14] = test system: Heliothis armigera; assay: Heliothis armigera spray test (HELIAR), comparative; settings: Helicoverpa armigera, 168 h, cotton plants, after 7 days
Description: as §1, with “Heliothis Armigera Spray Test ([…])” for “Spodoptera frugtiperda—Spray Test (SPODFR)”, “Spray Test ([…]) Solvent: 14” for “frugtiperda—Spray Test (SPODFR) Solvent: 14”, “solution. Cotton plants (Gossypium hirsutum)” for “solution. Cotton leaves (Gossypium hirsutum)”, “desired concentration and, after drying, populated with” for “desired concentration and populated with”, “of the cotton bollworm (Heliothis armigera). After 7” for “of the armyworm (Spodoptera frugiperda). After 7”

Row | SMILES | pest or weed control at 100 g/ha [1] [%] | efficacy [2] [%] | pest or weed control at 100 g/ha [3] [%] | pest or weed control at 20 ppm [4] [%] | Emax at 0.8 ppm [12] [%] | efficacy at 0.8 ppm [13] [%] | also measured
1 | CCS(=O)(=O)c1ccc(-n2ncn(-c3cccc(F)c3)c2=O)nc1-c1nc2cc(C(F)(F)C(F)(F)F)nnc2n1C [Example I-12] | 100 | 100 | 100 | 100 |  |  | efficacy (kill rate) [5]: 98%
2 | CCS(=O)(=O)c1ccc(-n2ncn(-c3ccc(Cl)cc3)c2=O)nc1-c1nc2cc(C(F)(F)C(F)(F)F)nnc2n1C [Example I-22] |  | 90 | 100 |  |  |  | efficacy [6]: 100%; efficacy (kill rate) [7]: 100%; efficacy [8]: 100%; efficacy [9]: 100%; efficacy (kill rate) [10]: 100%; efficacy (kill rate) [11]: 100%
3 | Cn1c(-c2nc(-n3ncn(-c4ccc(Cl)cc4)c3=O)ccc2CS(C)(=O)=O)nc2cc(C(F)(F)F)cnc21 [I-33 known from WO 2017/055185, reference compound] |  |  |  |  | 0 |  | efficacy at 0.16 ppm ([13]; 0.16 ppm): 15%
4 | CCS(=O)(=O)c1ccc(-n2ncn(-c3ccc(Br)cc3)c2=O)nc1-c1nc2cc(C(F)(F)C(F)(F)F)nnc2n1C [Example I-14] | 100 |  | 100 | 100 |  | 100 | percent efficacy at tested dose at 0.8 ppm [12]: 100%; percent efficacy (kill) at fixed dose at 0.8 ppm ([14]; 0.8 ppm): 100%; percent efficacy (kill) at fixed dose at 4 ppm ([14]; 4 ppm): 100%
5 | CCS(=O)(=O)c1ccc(-n2ncn(-c3ccc(Br)cc3)c2=O)nc1-c1nc2cc(C(F)(F)F)ccc2n1C [I-16 known from WO 2017/055185, reference compound] |  |  |  |  | 10 | 85 | Emax at 0.8 ppm ([14]; 0.8 ppm, read-out: % Efficacy): 20%; Emax at 4 ppm ([14]; 4 ppm, read-out: % Efficacy): 60%
